Converted amounts (≈) assume the structure as drawn. “Also recorded” adds a separate entry of the source.
Experiments:
HMEC-1 = experiment: Endothelial network formation assay on Matrigel; assay type: cell-based, human
Procedure: Endothelial network formation assay. HMEC-1 (4×10^4 cells/well) in MCDB131 containing 1% FBS and compound (1 or 3 μM) or curcumin (1-40 μM) and 50 ng/ml FGF-2 were added to 96-well plates coated overnight at 4° C. with 100 μl of growth factor-reduced reconstituted basement membrane matrix (Matrigel, cat. 354230, Corning, NY). Network formation was observed over subsequent hours and photographed under 4× or 10× objective using an Olympus CKX41 microscope.

ERK phosphorylation = experiment: Western blot, IL-1β-inducible ERK phosphorylation in HMEC-1; assay type: cell-based, human; settings: 20 ng/ml IL-1β 15 min
Procedure: Western blot analysis with extracts of cells treated with […]. HMEC-1 (80-90% confluency) were arrested in serum-free MCDB131 medium (Invitrogen, MD) without any growth factor for 48 h. Cells were treated with 30 μM compound in serum-free medium for 4 h, and incubated with 20 ng/ml IL-1β (Sigma, cat. SRE3083) in serum-free medium with the same concentration of compound for up to 4 h, unless otherwise indicated. Total protein was harvested as previously described using RIPA buffer with protease inhibitors. Proteins were resolved on 4-20% (w/v) SDS-polyacrylamide gradient gels and transferred to Immobilon-P PVDF membranes. Membranes were blocked with 5% skim milk and incubated with rabbit monoclonal FosB (cat. 2251S, 1:1000, Cell Signaling, USA), rabbit monoclonal VCAM-1 (cat. 13662S, 1:1000, Cell Signaling, USA), rabbit monoclonal p44/42 MAPK (cat. 4695S, 1:1000, Cell Signaling, USA), rabbit polyclonal p38 MAPK (cat. 9212S, 1:1000, Cell Signaling, USA), rabbit polyclonal SAPK/JNK (cat. 9252S, 1:1000, Cell Signaling, USA), rabbit monoclonal phospho-SAPK/JNK (cat. 4671S, 1:1000, Cell Signaling, USA), rabbit monoclonal phospho-p38 MAPK (cat. 4511S, 1:1000, Cell Signaling, USA), or, mouse monoclonal phospho-p44/42 MAPK antibodies (cat. 9106S, 1:2000, Cell Signaling, USA) at 4° C. overnight or mouse monoclonal β-actin antibodies (cat. A5316, 1:10000, Sigma-Aldrich) antibodies at 22° C. for 1 h. Membranes were then incubated with horseradish peroxidase conjugated secondary goat anti-rabbit (cat. P0448, 1:1000, DAKO Cytomation, Denmark) or goat anti-mouse (cat. P0447, 1:1000, DAKO Cytomation, Denmark) antibodies for 1 h. Chemiluminescence was detected using the Western Lightning Chemiluminescence system and ImageQuant™ LAS 4000 biomolecular imager. Band intensity in images generated with the LAS 4000 using the same settings were quantified by NIH ImageJ.

[1] = target: T1, Recombinant human His-MEK1 (Homo sapiens, UniProt Q02750); experiment: SPR (Biacore T200) on immobilised His-MEK1; assay type: binding; settings: 15° C.; 20 mM HEPES, 150 mM NaCl, 5% DMSO pH 7.4
T1 construct: purchased ThermoFisher Scientific PV3303
Procedure: (§1) SPR. SPR was performed on a Biacore T200. The active and reference flow cells of a Xantec NIHMC Ni sensor chip were conditioned with 0.5M NaEDTA followed by 5 mM NiCl2 in immobilisation buffer (20 mM HEPES, 150 mM NaCl, pH 7.4). Recombinant human His-MEK1 and His-MEK2 (500 nM, ThermoFisher Scientific, cat. PV3303 and PV3615, respectively) were injected for 15 min at 10 μl min^−1 over separate active flow cells. All immobilisation was carried out at 25° C. Following immobilisation, the temperature was lowered to 15° C., and the buffer changed to 20 mM HEPES, 150 mM NaCl, 5% DMSO pH 7.4. Samples of PD98059 (2.5-30 μM in running buffer) and BT2 (1.25-15 μM) were injected at a flow rate of 30 μl min^−1 over immobilised MEK1 and MEK2. Solvent correction was applied to the data using a DMSO standard curve. Data were analysed using the Biacore T200 Evaluation software. Prior to SPR, limits of compound solubility were determined using ^1H 1D NMR.

[2] = target: T2, Recombinant human His-MEK2 (Homo sapiens, UniProt P36507); experiment: SPR (Biacore T200) on immobilised His-MEK2; assay type: binding; settings: 15° C.; 20 mM HEPES, 150 mM NaCl, 5% DMSO pH 7.4
T2 construct: purchased ThermoFisher Scientific PV3615
Procedure: as §1

[3] = Limit of compound solubility by 1H 1D NMR; assay type: physicochemical; settings: 1H 1D NMR spectroscopy
Procedure: as §1

T2 sequence (P36507 whole entry): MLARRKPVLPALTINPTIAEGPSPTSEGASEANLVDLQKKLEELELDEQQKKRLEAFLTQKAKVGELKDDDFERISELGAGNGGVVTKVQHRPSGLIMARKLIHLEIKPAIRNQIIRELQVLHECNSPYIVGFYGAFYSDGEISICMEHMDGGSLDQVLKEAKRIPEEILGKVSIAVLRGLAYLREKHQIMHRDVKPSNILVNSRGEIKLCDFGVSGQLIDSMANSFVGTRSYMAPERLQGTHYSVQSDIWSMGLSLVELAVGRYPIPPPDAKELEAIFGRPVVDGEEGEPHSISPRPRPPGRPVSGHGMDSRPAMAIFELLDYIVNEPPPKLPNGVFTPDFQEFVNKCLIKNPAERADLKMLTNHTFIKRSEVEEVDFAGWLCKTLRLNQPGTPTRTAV
T1 sequence (Q02750 whole entry): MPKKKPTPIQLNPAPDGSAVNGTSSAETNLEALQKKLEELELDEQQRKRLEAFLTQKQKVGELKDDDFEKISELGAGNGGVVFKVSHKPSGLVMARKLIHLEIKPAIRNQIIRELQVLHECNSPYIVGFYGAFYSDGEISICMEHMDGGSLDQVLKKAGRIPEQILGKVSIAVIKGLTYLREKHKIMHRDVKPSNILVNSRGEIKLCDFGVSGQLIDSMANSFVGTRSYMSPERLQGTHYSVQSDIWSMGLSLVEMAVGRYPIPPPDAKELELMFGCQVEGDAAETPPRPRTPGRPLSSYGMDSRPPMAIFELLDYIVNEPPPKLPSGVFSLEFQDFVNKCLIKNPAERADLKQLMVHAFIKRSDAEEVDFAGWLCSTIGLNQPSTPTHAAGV

CCN1C(=O)c2cc(NC(=O)OCC(C)C)ccc2Oc2ccccc21 [BT2-IC, isobutyl (10-ethyl-11-oxo-10,11-dihydrodibenzo[b,f][1,4]oxazepin-2-yl)carbamate]
inhibition of network formation on Matrigel (FIG. 5B) (HMEC-1; 1 μM): not at 1 μM | inhibition of network formation on Matrigel (FIG. 13B) (HMEC-1; 3 μM): some inhibition of network formation at higher concentrations; also recorded: inhibited both ERK phosphorylation (FIG. 13A) and network formation (FIG. 13B) at 3 μM (albeit less potently than BT2) | IL-1β-inducible ERK phosphorylation (FIG. 5D) (ERK phosphorylation; 1 μM): not at 1 μM | IL-1β-inducible ERK phosphorylation (FIG. 13A) (ERK phosphorylation; 3 μM): inhibited both ERK phosphorylation (FIG. 13A) and network formation (FIG. 13B) at 3 μM (albeit less potently than BT2) | binding to His-MEK1 (SPR) [1]: some interaction with MEK1 | binding to His-MEK2 (SPR) [2]: but not MEK2 | solubility [3]: 8 ± 2 µM (≈ 2.84 µg/mL)

Reference: patent US20260102407A1, “TREATMENT METHODS” (priority 2020, published 2026)
